Each structure is given as a SMILES string. Counter-ions that a name gives are not always drawn.

The test deals with agonist-induced platelet aggregation. Description: Platelet Aggregation Assay. The format is cell-based. Conditions: human platelet-rich plasma. The protocol: Platelet Aggregation Assay: Venous blood was obtained from the arm of a healthy human donor who was drug-free and aspirin-free for at least two weeks prior to blood collection. Blood was collected into 10 mL citrated Vacutainer tubes. The blood was centrifuged for 15 minutes at 150×g at room temperature, and platelet-rich plasma (PRP) was removed. The remaining blood was centrifuged for 15 minutes at 1500×g at room temperature, and platelet-poor plasma (PPP) was removed. […] The results are expressed as % inhibition of agonist-induced platelet aggregation. For the IC50 evaluation, the test compounds were added at various concentrations prior to the activation of the platelets.

[1] abbreviates: Homo sapiens, Platelet, class symbols.
Where [2] appears, read: Homo sapiens, Platelet, numeric bound.

Regarding `CCOC(=O)COC(=O)c1cc(/C=C/C(=O)c2cccc(OCCN)c2)ccc1OCC(=O)O` [Example 27, (E)-(2-Ethoxy-2-oxoethyl) 5-[3-((3-(2-amino-ethoxy)phenyl))-3-oxo-1-propenyl]-2-(carboxymethoxy)-benzoate.trifluoroacetate], the IC50 (as a rule, the concentration that inhibits the measured activity by half) under setting [1] lay within 51 to 100 µM.

Under setting [1], `C=CCOc1ccc(OCCN)cc1C(=O)/C=C/c1ccc(OCC(=O)O)c(C(=O)OCC)c1` [Example 3, (E)-Ethyl 5-[3-((2-(1-prop-2-enyloxy)-5-(2aminoethoxy)phenyl))-3-oxo-1-propenyl]-2-(carboxymethoxy)benzoate.trifluoroacetate] returned an IC50 of under 10 µM.

On to `CCOc1cc(/C=C/C(=O)c2cccc(CCN)c2)ccc1OCC(=O)O` [Example 91, (E)-4-[3-((3-(2-Aminoethyl)phenyl))-3-oxo-1-propenyl]-2-ethoxyphenoxyaceticacid trifluoroacetate], for which, under setting [1], the IC50 fell in the range of 51 to 100 µM.

Under setting [1], `NCCOc1cccc(C(=O)/C=C/c2ccc(OCC(=O)O)c(C(=O)OCC(=O)O)c2)c1` [Example 25, (E)-(Carboxymethyl) 5-[3-((3-(2aminoethoxy)-phenyl))-3-oxo-1-propenyl]-2-(carboxymethoxy)benzoate.trifluoroacetate] came in with an IC50 of under 10 µM.

For `CCOC(=O)c1cc(/C=C/C(=O)c2cccc(C#CCN)c2)ccc1OCC(=O)O` [Example 247], the IC50 under setting [2] was over 100 µM.

Consider `NCc1cccc(C(=O)/C=C/c2ccc(OCC(=O)O)cc2)c1` [Example 125a], for which, under setting [2], the IC50 is over 100 µM.

Take `NCCOc1cccc(C(=O)/C=C/c2ccc(OCC(=O)O)c([N+](=O)[O-])c2)c1` [Example 26, (E)-4-[3-((3-(2-Aminoethoxy)phenyl))-3-oxo-1-propenyl]-2-nitrophenoxyacetic acid.trifluoroacetate]: under setting [1], the IC50 is under 10 µM.

Consider `COc1cc(C(=O)/C=C/c2cccc(OCCN)c2)ccc1OCC(=O)O` [Example 211, (E)-4-[3-((3-(2-aminoethoxy)phenyl))-1-oxo-prop-2-enyl]-2-methoxyphenoxyacetic acid.trifluoroacetate], for which the IC50 under setting [2] was over 100 µM.

`CCOc1cc(OCCN)cc(C(=O)/C=C/c2ccc(OCC(=O)O)cc2)c1` [Example 21, (E)-4-[3-((3-(2-Aminoethoxy)-5-ethoxyphenyl))-3-oxo-1-propenyl]phenoxyacetic acid.trifluoroacetate] showed an IC50 under setting [1] of 10 to 50 µM.

As for `CCOC(=O)c1cc(/C=C/C(=O)c2ccccc2OCCCN)ccc1OCC(=O)O` [Example 251], testing at 100 µM gave an inhibition of 18%. For the same molecule, under setting [2], the IC50 is over 100 µM.

Consider `COc1ccc(/C=C/C(=O)c2cccc(OCCN)c2)cc1CC(=O)O` [Example 252], for which the inhibition (in general, the share of the control response that was lost under treatment) at 100 µM is 38%. Moreover, under setting [2], the IC50 was over 100 µM.

Under setting [1], `NCCOc1ccc(OCc2ccccc2)c(C(=O)/C=C/c2ccc(OCC(=O)O)c(C(=O)OCC(=O)O)c2)c1` [Example 43] registered an IC50 of under 10 µM.

Under setting [1], `COc1cc(OCC(=O)O)ccc1/C=C/C(=O)c1cccc(OCCN)c1` [Example 65, (E)-4-[3-((3-(2-Aminoethoxy)phenyl))-3-oxo-1-propenyl]-3-methoxyphenoxyacetic acid.hydrochloride] displayed an IC50 of 10 to 50 µM.

The molecule `COc1cc(/C=C/C(=O)c2cccc(N3CCNCC3)c2)ccc1OCC(=O)O` [Example 120] gave an IC50 under setting [1] of under 10 µM.

Take `CNCCOc1cccc(C(=O)/C=C/c2ccc(OCC(=O)O)c(OC)c2)c1` [Example 121, (E)-4-[[3-[3-((2-(methylamino)ethoxy))-phenyl]-3-oxo-1-propenyl]]-2-methoxyphenoxyacetic acid.trifluoroacetate]: the IC50 under setting [1] lay in the range of 10 to 50 µM.

Take `CCOC(=O)c1cc(/C=C/C(=O)c2cccc(CC(C)N)c2)ccc1OCC(=O)O` (stereo not shown) [Example 101, (E)-Ethyl 5-[3-((3-(2-aminopropyl)phenyl))-3-oxo-1-propenyl]-2(carboxymethoxy)benzoate.trifluoroacetate]: the IC50 (class symbols) lay in the range of 10 to 50 µM.

As for `NCCc1cccc(C(=O)/C=C/c2ccc([N+](=O)[O-])c(OCC(=O)O)c2)c1` [Example 240], the IC50 under setting [2] is over 100 µM.

In the case of `NCCOc1cccc(C(=O)/C=C/c2ccc(OCC(=O)O)c(C(=O)OCc3ccccc3)c2)c1` [Example 28, (E)-Benzyl 5-[3-((3-(2-aminoethoxy)phenyl))-3-oxo-1-propenyl]-2-(carboxymethoxy)benzoate.trifluoroacetate], the IC50 under setting [1] fell in the range of 51 to 100 µM.

For the molecule `NCCOc1cccc(C(=O)/C=C/c2ccc(OCC(=O)O)c(OCC(=O)O)c2)c1` [Example 29, (E)-4-[3-((3-(2-Aminoethoxy)phenyl))-3-oxo-1-propenyl]benzene-1,2-bis(oxyacetic acid).trifluoroacetate], under setting [1], the IC50 lay within 10 to 50 µM.

For `COC(=O)c1cc(/C=C/C(=O)c2cccc(OCCN)c2)ccc1OCC(=O)O` [Example 30], the IC50 under setting [1] lay within 10 to 50 µM.

As for `NCc1ccc(C(=O)/C=C/c2ccc(OCC(=O)O)c([N+](=O)[O-])c2)cc1` [Example 250], the IC50 under setting [2] is over 100 µM.

With `CCCCOC(=O)c1cc(/C=C/C(=O)c2cccc(OCCN)c2)ccc1OCC(=O)O` [Example 24, (E)-n-Butyl 5-[3-((3-(2-aminoethoxy)-phenyl))-3-oxo-1-propenyl]-2-(carboxymethoxy)benzoate-trifluoroacetate], the IC50 under setting [1] is 10 to 50 µM.

In turn, `NCCOc1cccc(C(=O)CCc2ccc(OCC(=O)O)cc2)c1` [Example 126, 4-[3-((3-(2-Aminoethoxy)phenyl))-3-oxo-1-propyl]phenoxyacetic acid.hydrochloride] returned a concentration for half-maximal inhibition (IC50) under setting [1] of 51 to 100 µM.

Under setting [2], `C=CCc1cc(/C=C/C(=O)c2cccc(OCCN)c2)cc(C(=O)OC)c1OCC(=O)O` [Example 75b] returned an IC50 of over 100 µM.

With `CCOc1cc(/C=C/C(=O)c2cccc(OCCN)c2)ccc1OCC(=O)O` [Example 22, (E)-4-[3-((3-(2-Aminoethoxy)phenyl))-3-oxo-1-propenyl]-2-ethoxyphenoxyacetic acid.trifluoroacetate], the IC50 under setting [1] was under 10 µM.

In the case of `CCOC(=O)c1cc(/C=C/C(=O)c2cccc(OCCN)c2)ccc1OCC(=O)O` [Example 2, (E)-Ethyl 5-[3-((3-(2-aminoethoxy)phenyl))-3-oxo-1-propenyl]-2-(carboxymethoxy)benzoate.trifluoroacetate], the IC50 under setting [1] was in the range of 10 to 50 µM.

Molecule `NCc1ccc(C(=O)/C=C/c2ccc(CCC(=O)O)cc2)cc1` [Example 245] yielded an inhibition at 100 µM of 19%. This molecule also yielded an IC50 under setting [2] of over 100 µM.

Under setting [1], `COc1cc(/C=C/C(=O)c2cccc(OCCN)c2)ccc1OCC(=O)O` [Example 23] returned an IC50 of under 10 µM.

Molecule `C=CCOc1ccc(OCCN)cc1C(=O)/C=C/c1ccc(OCC(=O)O)c(C(=O)OCC(=O)O)c1` [Example 44, (E)-(Carboxymethyl) 5-((3-((2-(1-prop-2-enyloxy)-5-(2-aminoethoxy)phenyl))-3-oxo-1-propenyl))-2-(carboxymethoxy)benzoate.trifluoroacetate] yielded an IC50 under setting [1] of under 10 µM.

Under setting [1], `NCCOc1cccc(C(=O)/C=C/c2ccc(OCC(=O)O)c(-c3ccccc3)c2)c1` [Example 75c] had an IC50 of 51 to 100 µM.

Turning to `NCCCCc1ccc(C(=O)/C=C/c2ccc(OCC(=O)O)cc2)cc1` [Example 241], under setting [2], the IC50 was over 100 µM.

Molecule `NCc1cccc(C(=O)/C=C/c2ccc(OCC(=O)O)c(OCC(=O)O)c2)c1` [Example 76] registered an IC50 under setting [1] of 51 to 100 µM.

Molecule `CN(C)CCOc1cccc(C(=O)/C=C/c2cccc(C(=O)O)c2)c1` [Example 248] yielded an inhibition at 100 µM of 13%. Moreover, the IC50 under setting [2] was over 100 µM.

In turn, `NCCCCc1ccc(C(=O)/C=C/c2ccc(CCC(=O)O)cc2)cc1` [Example 243] had an IC50 under setting [2] of over 100 µM.

`NCCOc1cccc(C(=O)/C=C/c2ccc(OCC(=O)O)cc2)c1` [Example 1, (E)-4-[3-((3-(2-Aminoethoxy)phenyl))-3-oxo-1-propenyl]phenoxyacetic acid.hydrochloride]: for the setting “class symbols”, the concentration for half-maximal inhibition (IC50) is 10 to 50 µM.

The molecule `NCCOc1cccc(C(=O)/C=C/c2ccc(OCC(=O)O)cc2)c1` [Example 75a] displayed an IC50 (class symbols) of 51 to 100 µM.

Turning to `NCCc1cccc(C(=O)/C=C/c2ccc(OCC(=O)O)c([N+](=O)[O-])c2)c1` [Example 93], the inhibition at 100 µM came out at 21%. The molecule also had an IC50 under setting [2] of over 100 µM.

Under setting [2], `NCc1cccc(C(=O)/C=C/c2cccc(OCC(=O)O)c2)c1` [Example 244] gave an IC50 of over 100 µM.

`NCCOc1cccc(C(=O)/C=C/c2ccc(OCCC(=O)O)cc2)c1` [Example 242]: under setting [2], the IC50 is over 100 µM.

Under setting [1], `CCOC(=O)c1cc(/C=C/C(=O)c2cc(OCC)cc(OCCN)c2)ccc1OCC(=O)O` [Example 20, (E)-Ethyl 5-[3-((3-(2-aminoethoxy)-5-ethoxyphenyl))-3-oxo-1-propenyl]-2-(carboxymethoxy)benzoate.trifluoroacetate] yielded an IC50 of 10 to 50 µM.

Turning to `COc1cc(/C=C/C(=O)c2cccc(CNC(=N)N)c2)ccc1OCC(=O)O` [Example 112, (E)-4-[3-((3-(guanidinylmethyl)phenyl))-3-oxo-1-propenyl]-2-methoxyphenoxyacetic acid.trifluoroacetate], under setting [1], the IC50 lay within 10 to 50 µM.

The values are drawn from US5739163A, “Aromatic compounds containing basic and acidic termini useful as fibrinogen receptor antagonists” (The DuPont Merck Pharmaceutical Company, priority 1996, dated 1998).
